# Laboratory results reported in patent US20110124842A1 (priority 2003, published 2011).
# pKd: −log10 of the molar value. Like-named read-outs stand apart in the source and are kept apart here.
# What was measured:
# [1] = Circular dichroism spectroscopy of free peptides in solution (helicity); type: physicochemical; details: FIG. 48
# Procedure: To determine whether the imposed constraints increased the helicity of the peptides, each one was analyzed in solution using circular dichroism (CD) spectroscopy (FIG. 48). An Aviv spectropolarimeter Model 203-02 was used, with cells of 0.1 cm in length, a wavelength step of 0.5 nm and a bandwidth of 1.0 nm. One to three scans were reported. The exact peptide concentrations were determined by UV measurements at 280 nm on a Gison UV detector, model 116.
# [2] = system: Fab 4E10; test: Surface plasmon resonance (Biacore 2000), Fab 4E10 on CM5 chip; type: binding, human
# Procedure: The affinitiefs of the peptide analogs for 4E10 were also measured by surface plasmon resonance. Surface plasmon resonance experiments were performed using a Biacore 2000 instrument (Uppsala, Sweden). Around 2,200 response units (RU) of Fab 4E10 were coated on CM5 chips. The carboxyl groups on the chip were activated with 1-ethyl-3-(3-dimethylaminopropyl)carbodiimide hydrochloride (EDC) and N-hydroxysuccinimide (NHS). Fifty micrograms of Fab were diluted in 10 mM sodium acetate pH 4.5; a flow rate of 5 μl/min was used. Unreacted carboxyl groups were blocked with 1M ethanolamine at pH 8.5. The control was treated in the same fashion without any antibody present. Different amounts of free peptides were then passed over the surfaces at 30 or 50 μl/min for 2 min. Regeneration was done in HPS-EP buffer, 0.25 NaCl (Biacore) in 10 minutes. The amount of salt was increased compared to the commercial buffer to reduce the non-specific binding. For data evaluation, the BIAevaluation software was used. RI and Rmax were controlled, double referencing were done (0 concentration and start point). Analyses were performed to achieve the best curve fitting and small chi^2 (<1).
# Surface plasmon resonance experiments were performed using a Biacore 2000 instrument (Uppsala, Sweden).
# Chip preparation: around 2,200 response units (RU) of Fab 4E10 were coated on CM5 chips. The carboxyl groups on the chip were activated with 1-ethyl-3-(3-dimethylaminopropyl) carbodiimide hydrochloride (EDC) and N-hydroxysuccinimide (NHS). Fifty micrograms of Fab was diluted in 10 mM sodium acetate pH 4.5; a flow rate of 5 μl/min was used. Unreacted carboxyl groups were blocked with 1M ethanolamine at pH 8.5. The control was treated in the same fashion without any antibody present.
# Experiment: different amounts of free peptides were then passed over the surfaces at 30 or 50 μl/min for 2 min. Regeneration was done in HPS-EP buffer, 0.25 NaCl (Biacore) in 10 min. The amount of salt was increased compared to the commercial buffer to reduce the non-specific binding.
# Data evaluation: the BIAevaluation software was used. RI and Rmax were controlled, double referencing were done (0 concentration and start point). Analyses were performed to achieve the best curve fitting and small chi^2 (<1).
# [3] = system: HIV-1JR-FL; test: Peptide effect on neutralization by antibodies and sera, pseudotyped virus, U87.CD4.CCR5 cells; type: cell-based; details: FIG. 50
# Procedure: FIG. 50 represents graphs showing the effect of peptide […]-NH2 (SEQ ID NO: 8) on neutralization of HIV-1 by polyclonal antibodies and sera. HIV-1JR-FL, pseudotyped using the pNL4-3.Luc reporter plasmid, was assayed for neutralization using pooled polyclonal IgG from HIV-1 seropositive individuals (HIVIG), broadly neutralizing serum from the FDA2 individual and normal human serum spiked with 4E10 at 200 μg/ml in the undiluted serum. Neutralization assays were performed using U87.CD4.CCR5 cells as target cells, in the presence (open symbols) or absence (closed symbols) of peptide […]-NH2 (SEQ ID NO: 8). Note that the zero point in serum dilution corresponds to only 30 μg/ml 94-1 being present.
# (§1) To further investigate the interaction of peptide analogs and 4E10, the inhibitory effect of the best analogs on neutralization by 4E10 was assessed. Neutralization assays were performed in two different formats. In the first, replication competent HIV-1SF162 was assayed for neutralization using TZM-b1 cells as indicator cells (Wei, X., 2002). Alternatively, a pseudotype assay was used in which recombinant HIV-1JR-CSF virions, competent for a single round of infection, were generated using the luciferase reporter plasmid pNL4-3.Luc.R-E-, as described previously (Connor, R. I., 1995; Zwick, M. B., 2003), and the pseudovirus assayed for neutralization using U87.CD4.CCR5 cells as target cells (Bjorndal, A., 1997). In all cases, the competitor peptide ([…]-NH2; SEQ ID NO: 8) and IgG 4E10 were pre-incubated for 30 minutes at 37° C. (60 μg/ml), then the mixture was added (1:1 by volume) to HIV-1, and the resulting mixture incubated for a further hour at 37° C. The mixture of peptide, 4E10, and HIV-1 was then added (1:1 by volume) to the target cells, and the assay developed using luciferase reagent (Promega) following 48-72 hour incubation at 37° C. The degree of virus neutralization was determined as a percentage reduction of viral infectivity against an Ab-free control. All experiments were performed in triplicate and repeated at least twice with similar results.
# [4] = system: HIV-1 JR-CSF; type: cell-based; details: JRCSF; peptide at 30 μg/ml; FIG. 49
# Procedure: (§2) FIG. 49 is a bar graph showing the ability of peptide […]-NH2 (SEQ ID NO: 8) to block neutralization of HIV-1 by 4E10. Replication competent HIV-1 (SF 162 and JR-CSF), produced in human PBMCs, were assayed for neutralization by 4E10 (100 μg/ml) in TZM-b1 cells, in the presence (white bars) or absence (black bars) of an excess of peptide.
# as §1, with “(60 μg/ml), then the mixture was added (1:1 by volume) to HIV-1, and the resulting mixture incubated for a further hour at 37° C. The mixture of peptide, 4E10, and HIV-1 was then added (1:1 by volume) to the target cells, and the assay developed using luciferase reagent (Promega) following 48-72 hour incubation at 37° C.” left out, “All experiments were performed in triplicate and repeated at least twice with similar results.” left out
# [5] = system: HIV-1SF162; type: cell-based; details: peptide at 30 μg/ml, FIG. 49
# Procedure: as §2
# as §1, with “(60 μg/ml), then the mixture was added (1:1 by volume) to HIV-1, and the resulting mixture incubated for a further hour at 37° C. The mixture of peptide, 4E10, and HIV-1 was then added (1:1 by volume) to the target cells, and the assay developed using luciferase reagent (Promega) following 48-72 hour incubation at 37° C.” left out, “All experiments were performed in triplicate and repeated at least twice with similar results.” left out
sequence,measurement,setting,value
"NWFDITNWLWYIKKKK [Peptide 94-1, NWFDITNWLWYIKKKK-NH2]",helicity in solution by CD,[1],more helical than 84-1
same,higher affinity of 4E10 than to peptide 33-1,[2]; Table 7,about 17 fold
same,koff,[2]; Table 7,0.0138 s⁻¹
same,kon,[2]; Table 7,691000 M⁻¹ s⁻¹
same,pKd,"[2]; Table 7, 4E10 peptide epitopes, read-out: Kd",7.70
same,pKd,[2]; read-out: Kd (Biacore),7.74
same,block of neutralization by normal sera spiked with 4E10,[3],blocks neutralization
same,block of neutralization by the reference sera FDA2,[3],does not block neutralization
same,block of neutralization by polyclonal IgG from HIV-1 infected donors,[3]; HIVIG,does not block neutralization
same,block of neutralization by 4E10,[4],could block the neutralization
same,block of neutralization by 4E10,[5],could block the neutralization
